# According to patent US20260297081A1, “COMPOUNDS AND METHODS OF TREATING CANCERS” (Cullgen Inc., priority 2023, published 2026):
# Test system: MCF7 cells
# Assay: Anti-proliferation (viability) of MCF7 cells (Table 7, FIG. 2B)
# Assay type: cell-based
# Settings: Homo sapiens, MCF7, MCF7 cells, 3-6 days, 10-point serial dilution; read-out: GI IC50 in MCF-7
row,SMILES,IC50 [nM]
1,"[2H]C([2H])([2H])Nc1ccc(C(=O)Nc2cn(C)c(C3CC3)n2)c(NC2CC(NC(=O)CN3CCN(c4ccc(Nc5ncc6c(C)c(C(C)=O)c(=O)n(C7CCCC7)c6n5)nc4)CC3)C2)n1 (stereo not shown) [CPD-307, 2-((3-(2-(4-(6-((6-acetyl-8-cyclopentyl-5-methyl-7-oxo-7,8-dihydropyrido[2,3-d]pyrimidin-2-yl)amino)pyridin-3-yl)piperazin-1-yl)acetamido)cyclobutyl)amino)-N-(2-cyclopropyl-1-methyl-1H-imidazol-4-yl)-6-((methyl-d3)amino)nicotinamide]",> 100
2,"CCc1nc(NC(=O)c2ccc(NC)nc2NC2CC3(CC(NC(=O)CN4CCN(c5ccc(Nc6ncc7c(C)c(C(C)=O)c(=O)n(C8CCCC8)c7n6)nc5)CC4)C3)C2)cn1C (stereo not shown) [CPD-308, 2-((6-(2-(4-(6-((6-acetyl-8-cyclopentyl-5-methyl-7-oxo-7,8-dihydropyrido[2,3-d]pyrimidin-2-yl)amino)pyridin-3-yl)piperazin-1-yl)acetamido)spiro[3.3]heptan-2-yl)amino)-N-(2-ethyl-1-methyl-1H-imidazol-4-yl)-6-(methylamino)nicotinamide]",> 100
3,"CCCc1nc(NC(=O)c2ccc(NC)nc2NC2CC3(CC(NC(=O)CN4CCN(c5ccc(Nc6ncc7c(C)c(C(C)=O)c(=O)n(C8CCCC8)c7n6)nc5)CC4)C3)C2)cn1C (stereo not shown) [CPD-309, 2-((6-(2-(4-(6-((6-acetyl-8-cyclopentyl-5-methyl-7-oxo-7,8-dihydropyrido[2,3-d]pyrimidin-2-yl)amino)pyridin-3-yl)piperazin-1-yl)acetamido)spiro[3.3]heptan-2-yl)amino)-N-(1-methyl-2-propyl-1H-imidazol-4-yl)-6-(methylamino)nicotinamide]",> 100
4,"CNc1ccc(C(=O)Nc2cn(C)c(C3CCC3)n2)c(NC2CC3(CC(NC(=O)CN4CCN(c5ccc(Nc6ncc7c(C)c(C(C)=O)c(=O)n(C8CCCC8)c7n6)nc5)CC4)C3)C2)n1 (stereo not shown) [CPD-310, 2-((6-(2-(4-(6-((6-acetyl-8-cyclopentyl-5-methyl-7-oxo-7,8-dihydropyrido[2,3-d]pyrimidin-2-yl)amino)pyridin-3-yl)piperazin-1-yl)acetamido)spiro[3.3]heptan-2-yl)amino)-N-(2-cyclobutyl-1-methyl-1H-imidazol-4-yl)-6-(methylamino)nicotinamide]",> 100

# Other lines, results leading:
row,IC50 [nM],SMILES
1,> 100,"CNc1ccc(C(=O)Nc2ccc(N(C)C)nn2)c(NC2CC(OC(=O)N3CCN(c4ccc(Nc5ncc6c(C)c(C(C)=O)c(=O)n(C7CCCC7)c6n5)nc4)CC3)C2)n1 (stereo not shown) [CPD-311, 3-((3-((6-(dimethylamino)pyridazin-3-yl)carbamoyl)-6-(methylamino)pyridin-2-yl)amino)cyclobutyl 4-(6-((6-acetyl-8-cyclopentyl-5-methyl-7-oxo-7,8-dihydropyrido[2,3-d]pyrimidin-2-yl)amino)pyridin-3-yl)piperazine-1-carboxylate]"
2,> 100,"CCn1nc(NC(=O)c2ccc(NC)nc2NC2CC3(CC(NC(=O)CN4CCN(c5ccc(Nc6ncc7c(C)c(C(C)=O)c(=O)n(C8CCCC8)c7n6)nc5)CC4)C3)C2)cc1C (stereo not shown) [CPD-312, 2-((6-(2-(4-(6-((6-acetyl-8-cyclopentyl-5-methyl-7-oxo-7,8-dihydropyrido[2,3-d]pyrimidin-2-yl)amino)pyridin-3-yl)piperazin-1-yl)acetamido)spiro[3.3]heptan-2-yl)amino)-N-(1-ethyl-5-methyl-1H-pyrazol-3-yl)-6-(methylamino)nicotinamide]"
3,> 100,"CC(=O)c1c(C)c2cnc(Nc3ccc(N4CCN(CCC(=O)N5CCC(Nc6nc(NC(C)C)ccc6C(=O)Nc6cn(C)c(C7CC7)n6)CC5)CC4)cn3)nc2n(C2CCCC2)c1=O [CPD-313, 2-((1-(3-(4-(6-((6-acetyl-8-cyclopentyl-5-methyl-7-oxo-7,8-dihydropyrido[2,3-d]pyrimidin-2-yl)amino)pyridin-3-yl)piperazin-1-yl)propanoyl)piperidin-4-yl)amino)-N-(2-cyclopropyl-1-methyl-1H-imidazol-4-yl)-6-(isopropylamino)nicotinamide]"
